The values that follow come from patent US9522910B2, “Protein kinase inhibitors (variants), use thereof in treating oncological diseases and a pharmaceutical composition based thereon” (Obshchestvo s ogranichennoy otvetstvennostyou “Fusion …, priority 2011, dated 2016).

For assay [1], the system named is MV4-11 cells. Kind of assay: Animal model of acute myelogenous leukemia (MV4-11 tumors in SCID mice). In kind it is in vivo, mouse. The settings on record: 30 mg/kg; end of the therapy (20 days); ratio of mean tumor volume in therapeutic and control groups. How it is done: MV4-11 cells (1×10^7 in serum-free medium) were subcutaneously injected in right flank of SCID female mice. When tumor volume achieved ˜200 mm^3 mice were separated into two groups: control and therapeutic. Control group mice received 0.3 ml of 0.5% methylcellulose solution, therapeutic group received 0.3 ml of 0.5% methylcellulose with suspended therapeutic compound. Tumor volume (mm^3) was calculated as follows: V=L×W^2×0.5, where L—tumor length in mm, W—width in mm. Ratio of the mean tumor volume in therapeutic and control groups (% T/C) on the end of the therapy (20 days) was used to evaluate efficacy of tumor growth inhibition. Obtained data was subjected to statistical reliability Dunnet test. Efficacies of tested compounds in 30 mg/kg dose are depicted in Table 3.

In assay [2] the test system is A549 cells. The assay can be described thus: Animal model of non-small cell lung cancer (A549 tumors in nude mice). The conditions noted are these: 30 mg/kg, oral gavage; end of the therapy (20 days); ratio of mean tumor volume in therapeutic and control groups. In kind it is in vivo, mouse. The procedure:
Male nude mice were used for this experiment. A549 cells (1×10^7) in 0.2 ml of Matrigel (BD Pharmingen) solution were injected in left mice leg upon ketamine-xylazine anesthesia. After a week of cell inoculation mice were separated into control and therapeutic groups. Control group mice received 0.3 ml of 0.5% methylcellulose solution, therapeutic group received 0.3 ml of 0.5% methylcellulose with suspended therapeutic compound (30 mg/kg). Tumor volume (mm^3) was calculated as follows: V=L×W^2×0.5. Compounds were administered using oral gavage. Treatment continued for 20 days. Ratio of the mean tumor volume in therapeutic and control groups (% T/C) was used to evaluate efficacy of tumor growth inhibition upon the end of the therapy (20 days). Obtained data was subjected to statistical reliability Dunnet test. Efficacies of tested compounds in 30 mg/kg dose are depicted in Table 5.

Assay [3] deals with Abl (Homo sapiens (Human), UniProt P00519). Kind of assay: Kinase inhibition assay (33P transfer to plate-bound substrate), Abl. In kind it is biochemical. The conditions noted are these: compound concentration that causes 2-times reduction of kinase enzymatic activity. The text has this:
(§1) Kinases as either kinase domain or full construct fused to glutathione S-transferase (GST) or poly-Histidine tagged fusion proteins were expressed in baculovrius-infected insect cells (e.g. Sf21) or in E. Coli. They are purified to near homogeneity by affinity chromatography as previously described (Lehr et al., Production, purification and characterization of non-myristylated human T-cell protein tyrosine kinase in a baculovirus expression system, Gene, 1996; 169(2), 275-279; Gish et al., Bacterial expression, purification and preliminary kinetic description of the kinase domain of v-fps, Protein Eng. 8, 6, 609-614). In some instances, kinases are co-expressed or mixed with purified or partially purified regulatory polypeptides prior to measurement of activity.
(§2) Kinase activity and inhibition was measured by established protocols (see e.g. Braunwalder et al., A Solid-Phase Assay for the Determination of Protein Tyrosine Kinase Activity of c-src Using Scintillating Microtitration Plates, Anal Biochem. 234, 1, 23-26). In such cases, the transfer of ^33PO4 from ATP to the synthetic substrates poly(Glu, Tyr) 4:1 or poly(Arg, Ser) 3:1 attached to the bioactive surface of microtiter plates is taken as a measure of enzyme activity. After an incubation period, the amount of phosphate transferred is measured by first washing the plate with 0.5% phosphoric acid, adding liquid scintillant, and then counting in a liquid scintillation detector. The IC50 is determined by the concentration of compound that causes a 50% reduction in the amount of ^33P incorporated onto the substrate bound to the plate.

Assay [4] addresses Abl (T315I) (Homo sapiens (Human), UniProt P00519, T315I). The assay can be described thus: Kinase inhibition assay (33P transfer to plate-bound substrate), Abl (T315I). It is filed as biochemical. The settings on record: compound concentration that causes 2-times reduction of kinase enzymatic activity.
Description: as §1, §2

The subject of assay [5] is K562 human chronic myelogenous leukemia cells. The assay can be described thus: Antiproliferative activity on K562 cells (MTT). It is filed as cell-based. The conditions noted are these: K562, 72 h, compound concentration that causes 2-times reduction of viable cells, 3 days. The procedure: Moreover, antiproliferative activity of the compounds of the present invention can be studied on K562 human chronic myelogenous leukemia cells.
Human myelogenous leukemia K562 cells K562 were cultivated in RPMI 1640 growth medium. K562 cells were transferred to 96-well plated in duplicated (final concentration 2×10^4 cells/ml) and testing compound solution in growth medium was added at different concentrations (final volume is 100 μl per well). Solid compounds were first dissolved in DMSO, then the solution was diluted with DMSO to necessary concentration, mixed with equal volume of growth medium and was transferred to cell plates. The final compound concentrations of compounds was 0.5 nM to 10 μM. DMSO at same percentage is used as control. After compound was incubated with cells for 3 days, the numbers of active cells are measured. It was achieved by removing old medium, addition of 100 μl of fresh medium and 20 μl MIT solution containing 5 mg/ml PBS. Plates was incubated for 2 h at 37° C., then 100 μl DMSO was added at each well and stirred for 1 min. Then the absorbance was measured at 570 nm and percent of proliferation inhibition related to the control (without testing compounds) was determined.

In assay [6] the test system is HCT116 cells. Kind of assay: Animal model of solid intestine tumors (HCT116 tumors in SCID mice). It is filed as in vivo, mouse. The settings on record: 30 mg/kg; end of the therapy (20 days); ratio of mean tumor volume in therapeutic and control groups. How it is done: 200 μl of HCT116 cells (2.5×10^7 cells/ml) were subcutaneously injected in right flank of SCID mice. When tumor volume achieved ˜200 mm^3 mice were randomized and separated into two groups: control and therapeutic. Control group mice received 0.3 ml of 0.5% methylcellulose solution, therapeutic group received 0.5% methylcellulose with suspended therapeutic compound (30 mg/kg). Twice a week animals animal weight, toxic effects and tumor volume were measured. Experiment was stopped upon tumor reached volume of 1200 mm3 of when animal lost 10% of body weight, or 20% of body weight upon 2 consecutive weightings. Ratio of the mean tumor volume in therapeutic and control groups (% T/C) was used to evaluate efficacy of tumor growth inhibition upon the end of the therapy (20 days). Obtained data was subjected to statistical reliability Dunnet test. Efficacies of tested compounds in 30 mg/kg dose are depicted in Table 4.

In assay [7] the test system is Ba/F3 cells expressing either native or mutant (T315I) Bcr-Abl kinase. Kind of assay: Animal model of chronic myelogenous leukemia (Ba/F3 Bcr-Abl tumors in nude balb/c mice). It is filed as in vivo, mouse. The settings on record: 30 mg/kg, oral gavage once daily, 10 days; ratio of mean tumor volume in therapeutic and control groups. The procedure: Ba/F3 cells expressing either native or mutant (T315I) Bcr-Abl kinase, were inoculated in the right flank of nude balb/c mouse (100 μl of cell suspension in serum-free medium, 3×10^6 cells/ml). Mice were randomly assigned to the groups upon tumor volume of ˜500 mm^3. Once daily vehicle (0.5% methylcellulose I in water) was given using oral gavage to the control group, and substance suspension was given to therapeutic group during 10 days. In a typical experiment malignant cells (e.g., K562 cells, or Ba/F3 cells, expressing native of mutated Bcr-Abl kinase) are injected to mouse with reduced immunity (e.g. nude or SCID mice). Tumor volume (mm^3) was calculated as follows: V=L×W^2×0.5, where L—tumor length in mm, W—width in mm. Ratio of the mean tumor volume in therapeutic and control groups (% T/C) was used to evaluate efficacy of tumor growth inhibition. Obtained data was subjected to statistical reliability Dunnet test. Efficacies of tested compounds in 30 mg/kg dose are depicted in Table 2.

As to `Cc1ccc(C(=O)Nc2ccc(CN3CCN(C)CC3)c(C(F)(F)F)c2)cc1C#Cc1nnc2cc(F)ccn12` [drawing 131], the “% T/C” value in assay [1] was less than 40%.
Consider `Cc1ccc(C(=O)Nc2ccc(CN3CCN(C)CC3)c(C(F)(F)F)c2)cc1C#Cc1nnc2cccc(Cl)n12` [drawing 140], for which the “% T/C” value in assay [2] is listed as less than 40%.
As usually defined, the IC50 is the concentration that inhibits the measured activity by half. Higher therefore signals lower potency. `Cc1ccc(C(=O)Nc2ccc(CN3CCN(C)CC3)c(C(F)(F)F)c2)cc1C#Cc1nnc2ccccn12` [drawing 113]: the half-inhibitory concentration (IC50) in assay [3] was less than 20 nM; in assay [4], less than 20 nM; in assay [5], less than 100 nM.
With `Cc1ccc2nnc(C#Cc3cc(C(=O)Nc4ccc(CN5CCN(C)CC5)c(C(F)(F)F)c4)ccc3C)n2n1` [drawing 138], the “% T/C” value in assay [6] is recorded as less than 40%.
For the compound `CN1CCN(Cc2ccc(NC(=O)c3ccc(F)c(C#Cc4nnc5ccccn45)c3)cc2C(F)(F)F)CC1`, the IC50 in assay [3] is less than 20 nM; in assay [4] it was less than 20 nM; in assay [5], less than 100 nM.
As for `Cc1ccc(C(=O)Nc2ccc(CN3CC[C@@H](N(C)C)C3)c(C(F)(F)F)c2)cc1C#Cn1cnc2ccccc21` [drawing 135], the “% T/C” value in assay [6] is less than 40%.
Take `Cc1ccc(C(=O)Nc2ccc(CN3CCN(C)CC3)c(C(F)(F)F)c2)cc1C#Cc1nnc2cc(F)ccn12` [drawing 125]: the “% T/C” value in assay [7] is recorded as less than 40%.
In the case of `Cc1ccc(C(=O)Nc2ccc(CN3CC[C@@H](N(C)C)C3)c(C(F)(F)F)n2)cc1C#Cn1cnc2ccccc21` [drawing 130], the “% T/C” value in assay [1] was less than 40%.
For `Cc1ccc(C(=O)Nc2ccc(CN3CCN(C)CC3)c(C(F)(F)F)c2)cc1C#Cc1nnc2ccccn12` [drawing 127], the “% T/C” value in assay [1] is less than 40%.
Turning to `Cc1ccc(C(=O)Nc2ccc(CN3CCN(C)CC3)c(C(F)(F)F)c2)cc1C#Cc1nnc2cccc(Cl)n12` [drawing 128], the “% T/C” value in assay [1] is reported as less than 40%.
Regarding `Cc1ccc(C(=O)Nc2ccc(CN3CCN(C)CC3)c(C(F)(F)F)c2)cc1C#Cc1nnc2ccccn12` [drawing 121], in assay [7], the “% T/C” value is given as less than 40%.
`Cc1ccc2nnc(C#Cc3cc(C(=O)Nc4ccc(CN5CCN(C)CC5)c(C(F)(F)F)c4)ccc3C)n2n1` [drawing 132]: in assay [1], the “% T/C” value was less than 40%.
Turning to `Cc1ccc(C(=O)Nc2ccc(CN3CC[C@@H](N(C)C)C3)c(C(F)(F)F)n2)cc1C#Cn1cnc2ccccc21` [drawing 142], in assay [2], the “% T/C” value is less than 40%.
Take `Cc1ccc(C(=O)Nc2ccc(CN3CCN(C)CC3)c(C(F)(F)F)c2)cc1C#Cc1nnc2cc(C(=O)O)cnn12`: the half-maximal inhibitory concentration (IC50) in assay [3] is less than 20 nM; in assay [4], less than 20 nM; in assay [5], less than 100 nM.
As to `Cc1ccc(C(=O)Nc2ccc(CN3CCN(C)CC3)c(C(F)(F)F)c2)cc1C#Cc1nnc2cc(C(=O)O)ccn12`, the IC50 in assay [3] is less than 20 nM; in assay [4], less than 20 nM; in assay [5], less than 100 nM.
With `Cc1ccc(C(=O)Nc2ccc(CN3CCN(C)CC3)c(C(F)(F)F)c2)cc1C#Cc1nnc2ccccn12` [drawing 133], the “% T/C” value in assay [6] was less than 40%.
As for `Cc1ccc(C(=O)Nc2ccc(CN3CC[C@@H](N(C)C)C3)c(C(F)(F)F)c2)cc1C#Cn1cnc2ccccc21` [drawing 123], the “% T/C” value in assay [7] is listed as less than 40%.
As to `Cc1ccc(C(=O)Nc2ccc(CN3CCN(C)CC3)c(C(F)(F)F)c2)cc1C#Cn1cnc2cc(C(=O)O)ccc21`, the values for the IC50 in assay [3], in assay [4] and in assay [5] were less than 20 nM, less than 20 nM and less than 100 nM, respectively.
Regarding `Cc1ccc(C(=O)Nc2ccc(CN3CCN(C)CC3)c(C(F)(F)F)c2)cc1C#Cc1nnc2cccc(Cl)n12` [drawing 122], the “% T/C” value in assay [7] is on record as less than 40%.
Take `Cc1ccc(C(=O)Nc2ccc(CN3CCN(C)CC3)c(C(F)(F)F)c2)cc1C#Cc1nnc2cccc(Cl)n12` [drawing 134]: the “% T/C” value in assay [6] was less than 40%.
Consider `Cc1ccc(C(=O)Nc2ccc(CN3CCN(C)CC3)c(C(F)(F)F)c2)cc1C#Cc1nnc2ccccn12` [drawing 139], for which, in assay [2], the “% T/C” value is less than 40%.
For `Cc1ccc(C(=O)Nc2ccc(CN3CCN(C)CC3)c(C(F)(F)F)c2)cc1C#Cc1nnc2cccnn12`, the IC50 in assay [3] is less than 20 nM; in assay [4] it was less than 20 nM; in assay [5] it was less than 100 nM.
Turning to `Cc1ccc(C(=O)Nc2ccc(CN3CCN(C)CC3)c(C(F)(F)F)c2)cc1C#Cc1nnc2cc(C(N)=O)ccn12`, the IC50 in assay [3] is less than 20 nM; in assay [4], less than 20 nM; in assay [5], less than 100 nM.
Turning to `Cc1ccc(C(=O)Nc2ccc(CN3CCN(C)CC3)c(C(F)(F)F)c2)cc1C#Cc1nnc2cc(F)ccn12` [drawing 143], in assay [2], the “% T/C” value is listed as less than 40%.
With `Cc1ccc(C(=O)Nc2ccc(CN3CC[C@@H](N(C)C)C3)c(C(F)(F)F)n2)cc1C#Cn1cnc2ccccc21` [drawing 124], the “% T/C” value in assay [7] is reported as less than 40%.
On to `Cc1ccc(C(=O)Nc2ccc(CN3CC[C@@H](N(C)C)C3)c(C(F)(F)F)c2)cc1C#Cn1cnc2ccccc21` [drawing 129], for which the “% T/C” value in assay [1] is less than 40%.
On to `Cc1ccc(C(=O)Nc2ccc(CN3CC[C@@H](N(C)C)C3)c(C(F)(F)F)n2)cc1C#Cn1cnc2ccccc21` [drawing 136], for which, in assay [6], the “% T/C” value was less than 40%.
Take `Cc1ccc2nnc(C#Cc3cc(C(=O)Nc4ccc(CN5CCN(C)CC5)c(C(F)(F)F)c4)ccc3C)n2n1` [drawing 126]: the “% T/C” value in assay [7] was less than 40%.
On to `Cc1ccc(C(=O)Nc2ccc(CN3CCN(C)CC3)c(C(F)(F)F)c2)cc1C#Cc1nnc2cc(F)ccn12` [drawing 137], for which, in assay [6], the “% T/C” value was less than 40%.
For `Cc1ccc2nnc(C#Cc3cc(C(=O)Nc4ccc(CN5CCN(C)CC5)c(C(F)(F)F)c4)ccc3C)n2n1` [drawing 144], the “% T/C” value in assay [2] was less than 40%.
